Test results published in patent publication US20240262866A1, “METHOD FOR PREPARING ANIDULAFUNGIN DERIVATIVE” (Shanghai Senhui Medicine Co., Ltd., priority 2021, published 2024).
Where two headings read alike, the source gives them in different places. *1 amine or outer side, *2 acyl side, *3 side chain or, on linkers, in order; H or OH if unused. Where a SMILES comes first, the peptide text is derived from it. Bridges are numbered along the chain shown (N, C = ends). [ ]: non-standard residue; d: D form. The star is where a group is joined. pTerphenylCO(4''-OnC5H11) = CCCCCOc1ccc(-c2ccc(-c3ccc(C(=O)*)cc3)cc2)cc1; Orn(4R-OH,5R-OH) = O=C([C@H](C[C@@H](O)[C@@H](O)N[*:3])N[*:1])[*:2]; hTyr(3S-OH,4S-OH) = N[C@H](C(=O)O)[C@H](O)[C@@H](O)c1ccc(O)cc1; Pro(3S-OH,4S-Me) = C[C@H]1CN[C@H](C(=O)O)[C@H]1O; Hyp = O=C(O)[C@@H]1C[C@@H](O)CN1

Legend:
[1] = test system: Aspergillus flavus ATCC 28539; assay: MEC assay (CLSI M38-A2), Aspergillus flavus ATCC 28539; format: cell-based; settings: first batch; 28° C., 21-26 h
Description: (§1) After a test compound was serially diluted, an MIC (minimum inhibitory concentration) assay was performed on the standard Candida strain and an MEC (minimum effective concentration) assay on the standard Aspergillus strain. The MIC assay was performed according to the guidelines of the Clinical and Laboratory Standards Institute (CLSI M27-A3) and the MEC assay according to the guidelines of the Clinical and Laboratory Standards Institute (CLSI M38-A2).
Aspergillus was passaged onto an SDA plate and cultured at 35° C. for 48 h to 7 d to induce sporulation. Colonies on the plate were covered with about 1 mL of 0.85% normal saline or sterile water (polysorbate 20 was added at a final concentration of 0.1%-0.01%). The medium was gently wiped on its surface with a tip or a sterile cotton swab (be careful not to break the medium), and the spore hyphae suspension was transferred to a sterile tube and let stand for 3-5 min so that the heavy particles settled. The homogeneous upper layer of the suspension was transferred to a new sterile tube, which was then sealed and vortexed for 15 s (be careful as the suspension may produce an aerosol when the cover is removed). The concentration of the suspension was adjusted until an OD value of 0.09-0.13 was achieved using a spectrophotometer at 530 nm. The suspension was 50-fold diluted with 1×RPMI 1640. 100 μL of sample was added to each well of the 96-well plate within 2 h after dilution (the final spore concentration in the susceptibility testing plate was at 0.4×10^4 to 5×10^4 CFU/mL).
Colony counting: The suspension diluted with RPMI 1640 was further diluted 10-fold, and 10 μL of the dilution was applied to an SDA plate, cultured at 28° C., and observed every day; colonies were immediately counted upon being visible to the naked eye.
(§2) For echinocandin drugs, Aspergillus was incubated at 28° C. for 21-26 h, and then the MEC results were read.
• Yeast-type fungi: A disposable sealing film was applied to the 96-well plate, and the mixture was well mixed by shaking. Observation was performed through a plate reader with the naked eye. Comparisons were made to the growth control, and the minimum compound concentration corresponding to ≥50% growth inhibition was defined as MIC. Pictures were taken and saved using an automatic plate reader. • Aspergillus: For echinocandin drugs, comparisons were made to the growth control under a plate reader, and the minimum drug concentration that could cause the hyphae to form small, round, compact hyphal particles was defined as MEC. For accurate determination of MEC values, the plate must not be vortexed before reading.

[2] = Pharmacokinetic study after single intravenous injection; format: in vivo, SD rats; settings: Sprague-Dawley, rat, plasma, 10 mg/kg i.v.; for AUC(0-t): read-out: AUC0-96; for Vd: read-out: VdSS
Description: (§3) 12 SD rats were divided into 2 groups of 6 (half are male and half female). […] The body weights were measured once before administration. Administration was performed by single intravenous injection for 20 min per animal. PK measurement was performed once before administration and 5 min, 30 min, 1 h, 4 h, 8 h, 24 h, 48 h, 72 h and 96 h after administration. A histamine assay was performed once before administration and 30 min, 4 h, 8 h and 24 h after administration.

[3] = test system: plasma histamine; assay: Plasma histamine assay after single intravenous injection; format: in vivo, SD rats
Description: as §3

[4] = test system: Candida parapsilosis ATCC 22019; assay: MIC assay (CLSI M27-A3), Candida parapsilosis ATCC 22019; format: cell-based; settings: first batch; 24 h, ≥50% growth inhibition; quality control strain
Description: as §1
(§4) The frozen strain was passaged at least twice, and a single colony was picked and resuspended in normal saline or sterile water in a tube. […]
as §2
(§5) • Yeast-type fungi: A disposable sealing film was applied to the 96-well plate, and the mixture was well mixed by shaking. Observation was performed through a plate reader with the naked eye. […] Pictures were taken and saved using an automatic plate reader. • Aspergillus: For echinocandin drugs, comparisons were made to the growth control under a plate reader, and the minimum drug concentration that could cause the hyphae to form small, round, compact hyphal particles was defined as MEC. For accurate determination of MEC values, the plate must not be vortexed before reading.

[5] = test system: Candida albicans ATCC 90029; assay: MIC assay (CLSI M27-A3), Candida albicans ATCC 90029; format: cell-based; settings: first batch; 24 h, ≥50% growth inhibition
Description: as §1, §4, §2, §5

[6] = test system: SD rats; assay: General state observation after single intravenous injection; format: in vivo; settings: 10 mg/kg single intravenous injection, day of administration
Description: as §3

[7] = test system: Meyerozyma guilliermondii ATCC 6260; assay: MIC assay (CLSI M27-A3), Meyerozyma guilliermondii ATCC 6260; format: cell-based; settings: first batch; 24 h, ≥50% growth inhibition
Description: as §1, §4, §2, §5

[8] = test system: Candida glabrata ATCC 15126; assay: MIC assay (CLSI M27-A3), Candida glabrata ATCC 15126; format: cell-based; settings: first batch; 24 h, ≥50% growth inhibition
Description: as §1, §4, §2, §5

[9] = test system: Candida albicans (azole drug-resistant strain) R357; assay: MIC assay (CLSI M27-A3), Candida albicans azole drug-resistant strain R357; format: cell-based; settings: second batch; 24 h
Description: as §1, §4, §2, §5

[10] = test system: Candida albicans (azole drug-resistant strain) R358; assay: MIC assay (CLSI M27-A3), Candida albicans azole drug-resistant strain R358; format: cell-based; settings: second batch; 24 h
Description: as §1, §4, §2, §5

[11] = test system: Candida albicans ATCC 44858; assay: MIC assay (CLSI M27-A3), Candida albicans ATCC 44858; format: cell-based; settings: second batch; 24 h
Description: as §1, §4, §2, §5

[12] = test system: Candida tropicalis (amphotericin-resistant strain) ATCC 200956; assay: MIC assay (CLSI M27-A3), Candida tropicalis amphotericin-resistant strain ATCC 200956; format: cell-based; settings: second batch; 24 h
Description: as §1, §4, §2, §5

[13] = test system: Candida glabrata ATCC 36583; assay: MIC assay (CLSI M27-A3), Candida glabrata ATCC 36583; format: cell-based; settings: second batch; 24 h
Description: as §1, §4, §2, §5

[14] = test system: Candida krusei ATCC 6258; assay: MIC assay (CLSI M27-A3), Candida krusei ATCC 6258; format: cell-based; settings: first batch; 24 h, ≥50% growth inhibition; quality control strain
Description: as §1, §4, §2, §5

[15] = test system: Candida tropicalis ATCC 750; assay: MIC assay (CLSI M27-A3), Candida tropicalis ATCC 750; format: cell-based; settings: first batch; 24 h, ≥50% growth inhibition
Description: as §1, §4, §2, §5

[16] = test system: Candida albicans ATCC 90028; assay: MIC assay (CLSI M27-A3), Candida albicans ATCC 90028; format: cell-based; settings: second batch
Description: as §1, §4, §2, §5

Compound: CCCCCOc1ccc(-c2ccc(-c3ccc(C(=O)N[C@H]4C[C@@H](O)[C@@H](O)NC(=O)[C@@H]5[C@@H](O)[C@@H](C)CN5C(=O)[C@H]([C@@H](C)O)NC(=O)[C@H]([C@H](O)[C@@H](O)c5ccc(O)cc5)NC(=O)[C@@H]5C[C@@H](O)CN5C(=O)[C@H]([C@@H](C)O)NC4=O)cc3)cc2)cc1 [Anidulafungin] ({pTerphenylCO(4''-OnC5H11)}-[Orn(4R-OH,5R-OH)]T[Hyp][hTyr(3S-OH,4S-OH)]T[Pro(3S-OH,4S-Me)]; lactam 1-C)
- MEC Aspergillus flavus ATCC 28539 [1]: 0.031 µg/mL

Compound: CCCCCOc1ccc(-c2ccc(-c3ccc(C(=O)N[C@H]4C[C@@H](O)[C@@H](OC[C@H]5CCC[N+]5(C)C)NC(=O)[C@@H]5[C@@H](O)[C@@H](C)CN5C(=O)[C@H]([C@@H](C)O)NC(=O)[C@H]([C@H](O)[C@@H](O)c5ccc(O)cc5)NC(=O)[C@@H]5C[C@@H](O)CN5C(=O)[C@H]([C@@H](C)O)NC4=O)cc3)cc2)cc1 [Compound of formula (I)]
- AUC(0-inf) ([2]; female SD rats): 195 µg·h/mL
- Cmax ([2]; female SD rats): 9300 ng/mL
- clearance ([2]; female SD rats): 0.9 mL/min/kg
- half-life ([2]; female SD rats): 1530 min
- AUC(0-t) ([2]; female SD rats): 180 µg·h/mL
- Vd ([2]; female SD rats): 1.8 L/kg
- AUC(0-inf) ([2]; male SD rats): 191 µg·h/mL
- Cmax ([2]; male SD rats): 8000 ng/mL
- clearance ([2]; male SD rats): 0.9 mL/min/kg
- half-life ([2]; male SD rats): 1660 min
- AUC(0-t) ([2]; male SD rats): 174 µg·h/mL
- Vd ([2]; male SD rats): 1.9 L/kg
- ability to induce increases in the histamine level in rats ([3]; same dose (10 mg/kg) i.v., compared with rezafungin acetate): significantly lower
- MEC Aspergillus flavus ATCC 28539 [1]: 0.031 µg/mL

Compound: Rezafungin acetate
- MIC Candida parapsilosis ATCC 22019 [4]: 2 µg/mL
- MIC Candida albicans ATCC 90029 [5]: 0.125 µg/mL
- general state observation [6]: transient slight decrease in activity occurred in 2 females
- MIC Meyerozyma guilliermondii ATCC 6260 [7]: 2 µg/mL
- MIC Candida glabrata ATCC 15126 [8]: 0.125 µg/mL
- MIC Candida albicans (azole drug-resistant strain) R357 [9]: 0.25 µg/mL
- MIC Candida albicans (azole drug-resistant strain) R358 [10]: 0.25 µg/mL
- MIC Candida albicans ATCC 44858 [11]: 0.25 µg/mL
- MIC Candida tropicalis (amphotericin-resistant strain) ATCC 200956 [12]: 0.25 µg/mL
- MIC Candida glabrata ATCC 36583 [13]: 0.25 µg/mL
- fold higher mean plasma histamine concentration than group 1 ([3]; 30 min after administration, 10 mg/kg i.v., p=0.046): 4.5 times
- MIC Candida krusei ATCC 6258 [14]: 0.25 µg/mL
- MIC Candida tropicalis ATCC 750 [15]: 0.016 µg/mL
- MEC Aspergillus flavus ATCC 28539 [1]: 0.031 µg/mL
- MIC Candida albicans ATCC 90028 ([16]; 24 h): 0.25 µg/mL
- MIC Candida albicans + 50% human serum ATCC 90028 ([16]; + 50% human serum): 0.25 µg/mL

Compound: Caspofungin acetate
- MIC Candida parapsilosis ATCC 22019 [4]: 1 µg/mL
- MIC Candida albicans ATCC 90029 [5]: 0.063 µg/mL
- MIC Meyerozyma guilliermondii ATCC 6260 [7]: 1 µg/mL
- MIC Candida glabrata ATCC 15126 [8]: 0.25 µg/mL
- MIC Candida krusei ATCC 6258 [14]: 1 µg/mL
- MIC Candida tropicalis ATCC 750 [15]: 0.016 µg/mL
- MEC Aspergillus flavus ATCC 28539 [1]: 0.031 µg/mL
